Patent US20050004007A1, “Promotion of adoptosis in cancer cells by co-administration of cyclin dependent kinase inhibitiors and cellular differentiation agents” (priority 2000, published 2005)

What was measured:
Assay type in all cases: cell-based, human
[1] = system: cyclin D1; assay: Western analysis of cyclin D1 in U937 cells
Method: (§1) Alternatively, whole cell-pellets were washed twice in PBS, resuspended in PBS, and lysed by the addition of I volume of loading buffer. Lysates were boiled for 10 min, centrifuged at 12,800 g for 5 min and quantified using Coomassie protein assay reagent (Pierce, Rockfold, Ill.). 25 μg of total proteins per point were separated by SDS-PAGE and electro-blotted to nitrocellulose. The blots were blocked in 5% non-fat milk in PBS-T and probed for 1 h with the appropriate dilution of primary antibody. Blots were washed 3×10 min in PBS-T and then incubated with a 1:2000 dilution of peroxidase-conjugated secondary antibody for 1 h at room temperature. Blots were again washed 3×10 min in PBS-T and then developed by enhanced chemiluminesence. Where indicated, blots were stripped and re-probed with antibodies directed against actin.
Primary antibodies for both p21^WAF1/CIP1 and p27^KIP1 (Transduction Laboratories, Lexington, Ky.) were used in a 1:1000 dilution; PARP (1:1000; Oncogene Research Products, Cambridge, Mass.); pro-caspase 3 (1:1000; Transduction Laboratories); cytochrome c (1:2000; Pharmingen); bcl-2 (1:2000; DAKO, Denmark); bax (1:1000; Santa Cruz Biotechnology, Inc., Santa Cruz, Calif.); bid (1:1000; Cell Signaling, Beverly, Mass.); XIAP (1:1000; Cell Signaling); Mcl-1 (1:1000; Pharmingen); bak (1:1000; Calbiochem); c-Myc (1:1000; Pharmingen, San Diego, Calif.); actin (1:2000; Sigma Chemicals, St. Louis, Mo.); cyclins-D1, -A and -E (1:1000; Pharmingen); pRb, underP-pRb, pRb-CDK2 and pRb-CDK4 (all 1:1000; Pharmingen); Ac-H3 and Ac-H4 (both 1:1000; Upstate Biotechnology, Lake Placid, N.Y.); E2F-1 (Upstate Biotechnology). Secondary antibodies conjugated to horseradish peroxidase were obtained from Kirkegaard and Perry Laboratories, Inc. (Gaithersburg, Md.). Coomassie protein assay reagent was purchased from Pierce (Rockford, Ill.), and an enhanced chemiluminescence kit was obtained from New England Nuclear (Boston, Mass.). […]

[2] = system: U937 cells; assay: loss of mitochondrial membrane potential (DiOC6 uptake, flow cytometry); conditions: for percentage of cells displaying a loss of Δψm: 100 nM FP, 1 mM SB, 12 or 24 hr
Method: Assessment of mitochondrial membrane potential. At designated times, 1 ml aliquots of cells (2×10^5) were harvested and incubated with 40 nM DiOC6 for 15 minutes at 25° C. as previously described [Zamzami et al 1995]or at 37° C. Samples were analyzed using a Becton Dickinson FACScan flow cytometer (excitation λ=488 nm; emission λ=525 nm). […] Data acquisition and analysis was performed using […] Software (Becton Dickinson, Mansfield, Mass.).

[3] = system: pRb; assay: Western analysis of underphosphorylated pRb in U937 cells; conditions: for levels of underphosphorylated pRb: FP 100 nM, SB 1 mM, 12 or 24 hr
Method: Western analysis. Equal quantities of protein (15 μg/condition for MAPK, 40 μg/condition for cytochrome c, or 25 μg/condition) were separated by SDS-PAGE [underphosporylated pRB (7.5%), poly(ADP-ribose)polymerase or PARP (8.0%), p44/p42 MAPK (10%), p21, p27, procaspase 3 (12%), and cytochrome c (15%)] and electroblotted onto nitrocellulose. Western analysis of p44/p42 MAPK protein was performed according to the manufacturer's instructions (New England Biolabs); otherwise, studies were performed as previously described [Wang et al, 1998]. Briefly, U937 cells (5×10^6) were pelleted by centrifugation, resuspended in 50 μl PBS, lysed by the addition of 2× Laemmli buffer and boiled for 5 min. Proteins were quantified with Coomassie protein assay reagent. Blots were blocked in PBS-T/5% milk, washed twice with PBS-T, and incubated overnight at 4° C. with the appropriate primary antibody. The blots were washed with PBS-T and incubated with a horseradish-peroxidase conjugated secondary antibody diluted appropriately in PBS-T/5% mill. Following incubation, blots were developed by enhanced chemiluminescence exposure to Kodak X-OMAT film (Eastman Kodak Co., Rochester, N.Y.) and reprobed with antibodies directed against actin to control for equal loading of protein.
as §1
Primary antibodies for both p21^WAF1/CIP1 and p27^KIP1 (Transduction Laboratories, Lexington, Ky.) were used in a 1:1000 dilution; PARP (1:1000; Oncogene Research Products, Cambridge, Mass.); pro-caspase 3 (1:1000; Transduction Laboratories); cytochrome c (1:2000; Pharmingen); bcl-2 (1:2000; DAKO, Denmark); bax (1:1000; Santa Cruz Biotechnology, Inc., Santa Cruz, Calif.); bid (1:1000; Cell Signaling, Beverly, Mass.); XIAP (1:1000; Cell Signaling); Mcl-1 (1:1000; Pharmingen); bak (1:1000; Calbiochem); c-Myc (1:1000; Pharmingen, San Diego, Calif.); actin (1:2000; Sigma Chemicals, St. Louis, Mo.); cyclins-D1, -A and -E (1:1000; Pharmingen); pRb, underP-pRb, pRb-CDK2 and pRb-CDK4 (all 1:1000; Pharmingen); Ac-H3 and Ac-H4 (both 1:1000; Upstate Biotechnology, Lake Placid, N.Y.); E2F-1 (Upstate Biotechnology). Secondary antibodies conjugated to horseradish peroxidase were obtained from Kirkegaard and Perry Laboratories, Inc. (Gaithersburg, Md.). Coomassie protein assay reagent was purchased from Pierce (Rockford, Ill.), and an enhanced chemiluminescence kit was obtained from New England Nuclear (Boston, Mass.). The pan-caspase inhibitor BOC-D-fmk and the caspase 8 inhibitor Z-IETD-fmk were purchased from Enzyme System Products (Livermore, Calif.) All other chemicals or reagents were purchased from Sigma.

[4] = system: U937 cells; assay: CD11b surface differentiation marker expression (flow cytometry); conditions: 1 mM SB, 100 nM FP, 48 h
Method: Differentiation studies. Expression of the monocytic differentiation marker, CD11b, was monitored by direct immunofluorescence staining and flow cytometric analysis as previously described [Freemerman et al. 1997]. Following drug treatment, suspension and adherent cells were enumerated by a Coulter Counter and 2×10^6 cells were pelleted by centrifugation. The supernatant was aspirated and the cells were resuspended in 300 μl of ice-cold PBS. Two 100 μl aliquots from each sample were then combined with either phycoerythrin-1 (10 μl) or the IgG control. Samples were incubated for 20 min at 4° C. and diluted in PBS (1 ml). Sample data were collected using a Becton Dickinson FACScan flow cytometer and analyzed with Verity Winlist Software (Verity; Topsham, Me.). […] U937 cells were transfected with a full-length p21^WAF1/CIP1 promoter (base pairs 1-2326) as described by Chinery et al. [Chinery et al. 1997] utilizing electroporation (Eppendorf Multiporator, 620V, 60 μs) in hypoosmolar buffer. In each experiment, pSV-βgal (Promega), containing the β-galactosidase gene under the control of the constitutively active SV40 promoter and enhancer, was co-transfected with the luciferase reporter at a ratio of 1:5 (w/w) to normalize for transfection efficiency. The cells were incubated overnight in complete media and treated with 10 nM PMA, 100 nM FP, or 10 nM PMA/100 nM FP for 3 or 6 h. At indicated times, cells were washed in serum-free media, resuspended in 0.25M Tris-HCl pH 7.8, lysed by rapid freeze-thaw, centrifuged and the supernatant frozen at −70° C. Lysates (20 μL) were mixed with luciferase assay reagent (100 μL) and monitored for 20 seconds in a luminometer (Monolight 2010). For β-galactosidase activity, lysates (50 μL) were mixed in triplicate with an equal volume of […] assay buffer (2×) in a 96-well plate and incubated overnight. The reaction was terminated by addition of NaCO3 and absorbance was measured at 405 nm in a Vmax plate reader (Molecular Devices). Activity was determined by comparison to a standard curve. […]

| Compound | cyclin D1 protein ([1]; SB 1 mM 24 hours, FP and SB 12 hours) | percentage of cells displaying a loss of Δψm [2] | levels of underphosphorylated pRb [3] | expression of the differentiation marker CD11b [4] | FP concentration at which reduction in cyclin D1 levels was first observed ([1]; 12 and 24 hours treatment) [nM] | FP concentration at which reduction in cyclin D1 levels was virtually complete ([1]; 12 and 24 hours treatment) [nM] | loss of mitochondrial membrane potential (Δψm) ([2]; 1 and 1.5 μM SAHA and FP (100 nM)) | loss of mitochondrial membrane potential (Δψm) ([2]; FP 100 nM, PMA 10 nM, 4-8 h exposure) | full-length underphosphorylated pRb ([3]; 10 nM PMA, FP 50, 80 or 100 nM, 24 h) |
| --- | --- | --- | --- | --- | --- | --- | --- | --- | --- |
| CCCC(=O)[O-].[Na+] [SB, sodium butyrate] | moderate decrease | no effect | substantial increase | increased expression of the differentiation marker CD11b |  |  |  |  |  |
| CN1CC[C@H](c2c(O)cc(O)c3c(=O)cc(-c4ccccc4Cl)oc23)[C@H](O)C1 [FP, Flavopiridol] |  | modest increase | did not affect | not accompanied by an increase in CD11b expression | 100 | 300 | no effect | reductions were noted | minimal effect |
